Measured values from patent US6528260B1, “Biallelic markers related to genes involved in drug metabolism” (Genset, S.A., priority 1999, dated 2003).

Assays:
[1] = test system: DME-related biallelic markers; assay: Genotyping by microsequencing: allele frequencies of DME-related biallelic markers in random Caucasian populations; parameters: species or system human; conditions: Caucasian FRENCH
Method: The biallelic markers identified as described above were further confirmed and their respective frequencies were determined through microsequencing. Microsequencing was carried out on individual DNA samples obtained as described herein.
Amplification of genomic DNA fragments from individual DNA samples was performed as described in Example 1 using the same set of PCR primers (See Table 17). Microsequencing was carried out on the amplified fragments using specific primers (See Table 16). The preferred primers used in microsequencing had about 19 nucleotides in length and hybridized just upstream of the considered polymorphic base.
The microsequencing reactions were performed as follows: 5 μl of PCR products were added to 5 μl purification mix (2U SAP (Shrimp alkaline phosphate) (Amersham E70092X)); 2U Exonuclease I (Amersham E70073Z); and 1 μl SAP buffer (200 mM Tris-HCl pH8, 100 mM MgCl2) in a microtiter plate. The reaction mixture was incubated 30 minutes at 37° C., and denatured 10 minutes at 94° C. afterwards. To each well was then added 20 μl of microsequencing reaction mixture containing: 10 pmol microsequencing oligonucleotide (19 mers, GENSET, crude synthesis, 5 OD), 1 U Thermosequenase (Amersham E79000G), 1.25 μl Thermosequenase buffer (260 mM Tris HCl pH 9.5, 65 mM MgCl2), and the two appropriate fluorescent ddNTPs complementary to the nucleotides at the polymorphic site corresponding to both polymorphic bases (11.25 nM TAMRA-ddTTP; 16.25 nM ROX-ddCTP; 1.675 nM REG-ddATP; 1.25 nM RHO-ddGTP; Perkin Elmer, Dye Terminator Set 401095). After 4 minutes at 94° C., 20 PCR cycles of 15 sec at 55° C., 5 sec at 72° C., and 10 sec at 94° C. were carried out in a Tetrad PTC-225 thermocycler (MJ Research). The microtiter plate was centrifuged 10 sec at 1500 rpm. The unincorporated dye terminators were removed by precipitation with 19 μl MgCl2 2 mM and 55 μl 100% ethanol. After 15 minute incubation at room temperature, the microtiter plate was centrifuged at 3300 rpm 15 minutes at 4° C. After discarding the supernatants, the microplate was evaporated to dryness under reduced pressure (Speed Vac). Samples were resuspended in 2.5 μl formamide EDTA loading buffer and heated for 2 min at 95° C. 0.8 μl microsequencing reaction were loaded on a 10% (19:1) polyacrylamide sequencing gel. The data were collected by an ABI PRISM 377 DNA sequencer and processed using the GENESCAN software (Perkin Elmer).
The frequencies for both alleles are shown for preferred MGST-II, ME1, UGT1A7 and UGT2B4 markers in Tables 19, 20, 21 and 22, respectively.

[2] = test system: serum level of alanine aminotransferase (ALT); assay: Clinical study of zileuton: hepatotoxicity monitored by serum ALT level; type: in vivo, human; conditions: asthmatic individuals treated with zileuton
Description: In a preferred embodiment, the trait considered was a side-effect upon drug treatment, the study involved two populations derived from a clinical study of the anti-asthmatic drug zileuton. The case population was composed of asthmatic individuals treated with zileuton showing zileuton-associated hepatotoxicity monitored by the serum level of alanine aminotransferase (ALT) and the control population was composed of asthmatic individuals treated with zileuton and having no increased serum level of ALT. Inclusion criteria and association between the biallelic markers of the present invention and zileuton-associated hepatotoxicity are further described below and in Example 4.
Zileuton (Zyflo™) is an active inhibitor of 5-lipoxygenase, the enzyme that catalyzes the formation of leukotrienes from arachidonic acid, indicated for prophylaxis and chronic treatment of asthma. […] In the present invention the ALT test (serum level of alanine aminotransferase) was used, which is considered the most sensitive indicator of liver injury.
Two groups of unrelated individuals were used in this association study in accordance with the invention: the case-control populations. The case population was composed of 89 asthmatic individuals treated with zileuton showing zileuton-associated hepatotoxicity monitored by the serum level of alanine aminotransferase (ALT) and the control population was composed of 208 asthmatic individuals treated with zileuton and having no increased serum ALT level.
The side effect examined in this study was the hepatotoxicity experienced by asthmatic individuals as a result of their treatment with Zileuton as part of a clinical study. […] Hepatotoxicity was monitored by measuring the serum levels of alanine aminotransferase (ALT), which is a sensitive indicator of liver cell damage.
As mentioned above, an association study is more informative if the populations considered present extreme phenotypes. […]

[3] = test system: smooth muscle in peripheral airways; conditions: both in vitro and in vivo; cited from earlier work

## 12-143-453 (DNA TGGAGTGGAGCTTGGTTCTGGCCRTGGGCTGGGGAAGGGAGGTCCGG; allele 24: 12-143-453 : polymorphic base A or G; listed as Homo Sapiens)
[1]
  allele frequency A: 50.61
  allele frequency G: 49.39

## CC(c1cc2ccccc2s1)N(O)C(N)=O (stereo not shown) [Zileuton, zileuton]
[2]; 89 individuals
  ALT+ population (at least 3 times the upper limit of normal level of ALT) as share of total asthmatic individuals in the study: 4%
[2]; 208 individuals
  ALT- population (less than 1xULN of ALT) as share of total asthmatic individuals in the study: 35%
[2]; compared to ALT levels prior to zileuton intake
  asthmatic individuals that did not experience Zileuton-associated ALT increase: More than 90%

## CCCCC/C=C\C\C=C/C=C/C=C/[C@@H](SC[C@H](N)C(=O)NCC(=O)O)[C@@H](O)CCCC(=O)O [LTD4, Leukotriene D4]
[3]
  bronchoconstrictor potency relative to histamine: 1000 times

## 12-141-159 (DNA CTCAGTGAGTGAGTTGAAGGGCTYAGTCAACTATTTGTTGATACCAC; allele 24: 12-141-159 : polymorphic base T or C; listed as Homo Sapiens)
[1]
  allele frequency A: 37.5
  allele frequency G: 62.5

## CCCCC/C=C\C\C=C/C=C/C=C/[C@@H](SC[C@H](NC(=O)CC[C@H](N)C(=O)O)C(=O)NCC(=O)O)[C@@H](O)CCCC(=O)O [LTC4, leukotriene C4]
[3]
  bronchoconstrictor potency relative to histamine: 1000 times

## 12-124-194 (DNA TCTAGCTGGAGCCTGCGCTTGAGYAAAGAGCTGAACAACCAGATTGC; allele 24: 12-124-194 : polymorphic base C or T; listed as Homo Sapiens)
[1]
  allele frequency C: 19.41
  allele frequency T: 80.59

## 12-142-321 (DNA GCAGCACAGCGGTCTGCGTGGAARTGAGGCACCGGGTGTGGGCGGGG; allele 24: 12-142-321 : polymorphic base A or G; listed as Homo Sapiens)
[1]
  allele frequency A: 54.44
  allele frequency G: 45.56
